Measurements published in patent US20260306460A1, “COMPOSITION FOR REMOVING AND INHIBITING SENESCENT CELLS, AND USES THEREOF” (LIFECEUTIX CO., LTD., priority 2023, published 2026).
Values joined by “and” are separate entries in the source; they are usually repeats but may differ in a detail not shown here. Equal entries are not always repeated.

Legend:
[1] = tested on: HMGN1 secreted from senescent A549 cells; experiment: HMGN1 secretion (ELISA) from senescent A549 cancer cells, Example 12; type: cell-based, human; conditions: senescent untreated = 100%; 30 μM; 90 μM for LX-305, 905, 1302, 1601, 1603, 2003, 2702, 2901, 3106; 270 μM for LX-1103, 2005, 2007;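 further: A549 cells made senescent by doxorubicin exposure, with DMSO-treated cells serving as the non-senescent control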
Procedure: Cells were treated with doxorubicin or control (DMSO) and cultured.

[2] = tested on: senescent foreskin cells; experiment: Survival of senescent human cells treated with supernatant (secreted fluid) from death-induced cells, Example 13; type: cell-based; conditions: senescent treated cells; for viability at 30 µM: Homo sapiens, 72 h
Procedure: After 3 days, cell viability was measured using CellTiter-Glo Luminescent Cell Viability Assay (Promega) or light microscopy.
During this additional culture, by checking with an optical microscope, etc., the medium supernatants containing secreted fluid from normally proliferating and senescent cells in which cell death was induced were obtained. The obtained medium supernatant was replaced with the medium of normally proliferating and senescent cells, respectively, and cell survival rate was measured after 3 days.

[3] = tested on: naturally aged C57BL6J mice; experiment: Skin aging (dermal thickness, COL1A1 and SDF1 mRNA, hair loss) in naturally aged mice, Example 21-10, Table 25; type: in vivo, mouse; conditions: for Dermal Thickness (μm): mouse, in vivo
Procedure: (§1) 22-month-old female C57BL6J mice (KRIBB Laboratory Animal Resource Center) were acclimated to the experimental environment for one week, after which the aged mice were randomly assigned to experimental and control groups. Eight-week-old, non-aged mice served as controls. LX-403 was mixed in a 10% ethanol solution of PEG400 and administered orally at a concentration of 25 mg/kg daily for 21 days, or administered to the skin, joints, or eyes at a concentration of 1 μM. LX-1801 was mixed in distilled water with 4% DMSO, 30% PEG300, and 5% Tween80 and administered to the skin, joints, or eyes at a concentration of 0.4 μM daily for 21 days. LX-2001 was mixed in PBS and administered to the skin, joints, or eyes at a concentration of […] daily for 21 days. LX-2002 was mixed in distilled water with 4% DMSO, 30% PEG300, and 5% Tween80 and administered to the skin, joints, or eyes at a concentration of 2 μM daily for 21 days. […] LX-2005 was mixed in distilled water with 4% DMSO, 30% PEG300, and 5% Tween80 and administered to the skin, joints, or eyes at a concentration of 90 μM daily for 21 days. LX-2007 was mixed in distilled water with 4% DMSO, 30% PEG300, and 5% Tween80 and administered to the skin, joints, or eyes at a concentration of 90 μM daily for 21 days. […] LX-3002 was mixed in distilled water with 4% DMSO, 30% PEG300, and 5% Tween80 and administered orally at a concentration of 10 mg/kg daily for 21 days. […] LX-5411 was mixed in 5% PBS and administered orally at a concentration of 10 mg/kg daily for 21 days or administered to the skin, joints, or eyes at a concentration of 3 μM. LX-5701 was mixed in PBS and administered orally at a concentration of 360 mg/kg daily for 21 days. LX-6807 was mixed in saline and administered intraperitoneally at a concentration of 1 mg/kg daily for 21 days. LX-2101 or LX-2102 was mixed in PBS solution with 5% DMSO and administered intraperitoneally at a concentration of 20 mg/kg or 10 mg/kg, respectively, daily for 21 days. The control group received only the solution in the same volume. After the end of drug administration, the methods described in each example below were performed.
Frozen sections of skin tissue were stained with Hematoxylin/Eosin (H/E), and the dermal thickness was observed under an optical microscope. Furthermore, the mRNA levels of collagen (COL1A1), a skin component, and SDF1, which suppresses age-related pigmentation, were measured using qRT-PCR as described in Example 7-2 of WO2023-085787 A1. […] Furthermore, biweekly examinations were performed to assess the onset of hair loss due to aging.

[4] = tested on: naturally aged C57BL6J mice; experiment: Hot plate joint pain test in naturally aged mice, Example 21-12, Table 27; type: in vivo, mouse; conditions: hot plate 55° C., untreated aged 6.9 (±1.8)
Procedure: as §1
RNA was extracted from joint tissue as described in Example 7-2 of WO2023-085787 A1, and qRT-PCR was performed using the synthesized cDNA. […] To analyze joint pain due to joint aging, hotplate analysis was performed. Specifically, thermal pain thresholds were measured using a hot plate. After acclimating mice to a temperature of 30° C. for 10 minutes, the time required for hind paw licking or jumping responses to occur at 55° C. was measured. To prevent tissue damage, the response was measured for less than 30 seconds, and the average value was used from five measurements.

[5] = tested on: bleomycin-induced scleroderma C57BL6J mice; experiment: Bleomycin scleroderma in mice (p16, COL1A1 mRNA, dermal thickness), Example 24-2, Table 48; type: in vivo, mouse; conditions: daily for 21 days; for p16 mRNA: untreated 100 (±8.8); for Col1a1 mRNA: untreated 100 (±13.2); for Dermal Thickness: untreated 459 (±38.7)
Procedure: Eight-week-old male C57BL6J mice (KRIBB Laboratory Animal Resource Center) were acclimated to the experimental environment for one week. Then, 100 μl of the anticancer drug bleomyxin (1 mg/ml) was administered subcutaneously every other day to induce scleroderma for more than three weeks. Mice with scleroderma were randomly assigned to experimental and control groups. LX-403 was mixed with a 10% ethanol solution of PEG400 and administered orally at a concentration of 25 mg/kg daily for 21 days or administered directly to the skin at a concentration of 1 μM. LX-1801 was mixed with a solution of 4% DMSO, 30% PEG300, and 5% Tween80 in distilled water and administered subcutaneously at a concentration of 0.4 μM daily for 21 days. LX-2001 was mixed in PBS and administered intradermally at a concentration of 2 μM daily for 21 days. LX-2002 was mixed in distilled water with 4% DMSO, 30% PEG300, and 5% Tween80 and administered intradermally at a concentration of 2 μM daily for 21 days. […] LX-2005 was mixed in distilled water with 4% DMSO, 30% PEG300, and 5% Tween80 and administered intradermally at a concentration of 90 μM daily for 21 days. LX-2007 was mixed in distilled water with 4% DMSO, 30% PEG300, and 5% Tween80 and administered intradermally at a concentration of 90 μM daily for 21 days. […] LX-3002 was mixed with distilled water with 4% DMSO, 30% PEG300, 5% tween80 and administered orally at 10 mg/kg daily for 21 days. […] LX-5411 was mixed with 5% PBS and administered orally at 10 mg/kg daily for 21 days or subcutaneously at 3 μM. LX-5701 was mixed with PBS and administered orally at 360 mg/kg daily for 21 days. LX-6807 was mixed in saline and administered intraperitoneally at a concentration of 1 mg/kg daily for 21 days. The control group was administered only the solution in the same volume. After the end of drug administration, mice were sacrificed in the same manner as in Example 7-2 of WO2023-085787 A1, RNA was extracted from skin tissue, and the synthesized cDNA was used to perform and analyze the mRNA amounts of p16 and collagen (COL1A1) by qRT-PCR (quantitative real-time PCR). In addition, to measure the degree of bleomycin-induced skin hardening, skin frozen sections were stained with H/E (Hematoxylin/Eosin), and the thickness of the dermis was observed under an optical microscope.

[6] = tested on: NaIO3-induced retinal degenerative C57BL6J mice; experiment: NaIO3 retinal degeneration in mice (p16 mRNA, outer nuclear layer thickness), Example 29, Table 53; type: in vivo, mouse; conditions: daily for 21 days; for Outer nuclear layer thickness: untreated 27.4 (±1.3); for p16 mRNA: untreated 100%
Procedure: Then, retinal degenerative diseases were induced for more than 7 days by intravenous administration of 20 mg/kg of NaIO3, an oxidizing agent that induces retinal pigment epithelial cell death and retinal degeneration. Mice with retinal degenerative diseases were randomly assigned to experimental and control groups. […] The control group received only the solution in the same volume. […] In addition, frozen sections of the other eye tissue were stained with H/E (Hematoxylin/Eosin), and the thickness of the outer nuclear layer (ORL) was observed under an optical microscope. […] The mRNA amount after aging induction was calculated as 100% and compared with the mRNA amount of p16 after treatment with the test compound.

[7] = Table 8, supernatant from dying senescent cells treated at 30, 90 or 270 μM (as Example 11)
[8] = naturally aged mice, untreated aged = 100
[9] = skin, naturally aged mice, untreated aged = 1

Compound | HMGN1 [1] [%] | Survival [2, 7] | Dermal Thickness (μm) [3] | Relative area of hair loss (%) [3, 8] | Col1a1 mRNA (Fold) [3, 9] | SDF1 mRNA (fold) [3, 9] | Response time (s) [4] | p16 mRNA [5] | Col1a1 mRNA [5] | Dermal Thickness [5] | Outer nuclear layer thickness [6] | p16 mRNA [6] | Col1a1 mRNA (Fold) ([3]; topical) | Relative area of hair loss (%) ([3]; topical) | SDF1 mRNA (fold) ([3]; topical) | viability at 30 µM ([2]; supernatant from death-induced proliferating cells, 3 days) [%] | viability at 30 µM ([2]; supernatant from death-induced senescent cells, 3 days) [%] | Survival ([2]; supernatant from No Cells, 3 days)
C[C@@H]1CC[C@@]23C[C@H](O)C(=O)[C@@]2(O)[C@]1(C)[C@H](OC(=O)CCl)C[C@@H](C1=CCn2c(=O)n(-c4ccccc4)c(=O)n2C1)[C@@H]3C [LX-1801, (2S,3aS,4S,5R,7R,8S,8aS,11R)-7-(1,3-Dioxo-2-phenyl-2,3,5,8-tetrahydro-1H-[1,2,4]triazolo[1,2-a]pyridazin-6-yl)-2,3a-dihydroxy-4,8,11-trimethyl-3-oxooctahydro-1H-4,8a-propanoazulen-5-yl 2-Chloroacetate] | 295 | 41.6 | 222 (±37.4) μm | 82 (±6.6) % | 2.0 (±0.2) Fold | 2.1 (±0.2) fold | 4.9 (±1.1) s | 35.4 (±5.6) % | 47.8 (±4.7) % | 418 (±42.3) μm | 32.7 (±2.6) μm | 42 (±4.4) % | – | – | – | – | – | –
Cc1cccc([C@H](C)c2cnc[nH]2)c1C [LX-6807, Dexmedetomidine] | – | – | 267 (±22.4) μm | 72 (±3.8) % | 3.2 (±0.2) Fold | 2.1 (±0.2) fold | 4.8 (±0.4) s | 64.7 (±3.5) % | 37.6 (±2.5) % | 315 (±29.8) μm | 50.8 (±3.2) μm | 64 (±4.4) % | – | – | – | – | – | –
CCCC\C=C/C=C/C=C\CCCCCCCC(=O)O [LX-2707, Punicic acid] | – | – | 237 (±19.4) μm | – | – | – | 5.4 (±0.6) s | 67.5 (±4.7) % | 64.1 (±2.0) % | 389 (±23.6) μm | 31.8 (±1.7) μm | 76 (±5.4) % | – | – | – | – | – | –
S=C(N/N=C1\CCCc2cccnc21)N1CCN(c2ccccn2)CC1 [LX-801] | 329 | 52.7 | – | – | – | – | – | – | – | – | – | – | – | – | – | – | – | –
C#CC(=O)N1[C@@H](CCCC)Cc2cc(OC)ccc2[C@@H]1c1ccc(NC23CC4CC(CC(C4)C2)C3)cc1 [LX-5411] | – | – | 231 (±27.1) μm | 64 (±4.8) % | 2.7 (±0.1) Fold | 2.3 (±0.2) fold | 4.7 (±0.4) s | 43.8 (±3.0) % | 55.3 (±1.6) % | 376 (±47.1) μm | 43.7 (±4.2) μm | 43 (±2.5) % | – | – | – | – | – | –
CC1(C)CC[C@]2(NC(=O)C(C)(F)F)CC[C@]3(C)[C@H](C(=O)C=C4[C@@]5(C)C=C(C#N)C(=O)C(C)(C)[C@@H]5CC[C@]43C)[C@@H]2C1 [LX-2101, Omaveloxolone] | 297 | 39.7 | 224 (±11.1) μm and 251 (±15.1) μm | 82 (±8.9) % | 2.5 (±0.2) Fold | 1.4 (±0.3) fold | 5.1 (±0.4) s | – | – | – | 29.4 (±7.5) μm and 39 (±4.1) μm | 80 (±2.7) % and 67 (±7.0) % | 2.2 (±0.2) Fold | 79 (±4.1) % | 1.9 (±0.3) fold | – | – | –
COC(=O)[C@]12CCC(C)(C)C[C@H]1[C@H]1C(=O)C=C3[C@@]4(C)C=C(C#N)C(=O)C(C)(C)[C@@H]4CC[C@@]3(C)[C@]1(C)CC2 [LX-2102, Bardoxolone methyl] | 233 | 46.3 | 234 (±9.6) μm | – | – | – | – | – | – | – | – | – | 2.0 (±0.2) Fold | 89 (±7.5) % | 1.3 (±0.1) fold | – | – | –
COC(=O)c1ccc([C@H]2c3[nH]c4ccccc4c3C[C@H](C(=O)OC)N2C(=O)CCl)cc1 [LX-405] | 310 | – | – | – | – | – | – | – | – | – | – | – | – | – | – | 41.3 | 52.7 | 102.8 (±4.6) %
COC(=O)[C@H]1Cc2c([nH]c3ccccc23)[C@H](c2ccc(S(C)(=O)=O)cc2)N1C(=O)CCl [LX-5401, methyl (1S,3R)-2-(2-chloroacetyl)-1-(4-(methylsulfonyl)phenyl)-2,3,4,9-tetrahydro-1H-pyrido[3,4-b]indole-3-carboxylate] | – | – | 222 (±26.3) μm | – | – | – | 5.9 (±0.2) s | 61.2 (±6.7) % | 74.6 (±2.4) % | 401 (±46.3) μm | – | – | – | – | – | – | – | –
O=C1C2CCN(CC2)C1CNC(=O)C(F)(F)F (stereo not drawn) [LX-5701] | – | – | 239 (±16.4) μm | 71 (±8.4) % | 1.9 (±0.1) Fold | 1.7 (±0.3) fold | 4.6 (±1.3) s | 64 (±9.4) % | 59.7 (±17.3) % | 358 (±21.4) μm | 52.7 (±3.2) μm | 67 (±7.3) % | – | – | – | – | – | –
